Where two headings read alike, the source gives them in different places.
Assays:
HL-60 [1] = experiment: MTT dye reduction cytotoxicity assay, HL-60; type: cell-based; details: Homo sapiens
U937 = experiment: MTT dye reduction cytotoxicity assay, U937; type: cell-based; details: Homo sapiens, U-937
K562 = experiment: MTT dye reduction cytotoxicity assay, K562; type: cell-based; details: Homo sapiens
CCRF-CEM [2] = experiment: MTT dye reduction cytotoxicity assay, CCRF-CEM; type: cell-based; details: Homo sapiens
CCRF-CEM (dcK)^- = experiment: MTT dye reduction cytotoxicity assay, CCRF-CEM deoxycytidine kinase deficient cell line; type: cell-based; details: Homo sapiens
L1210 leukemia [3] = experiment: Intravenous treatment of L1210 leukemia in BDF1 mice; type: in vivo, murine (female BDF1 mice); details: i.v.; for T/C, increase of lifespan: including 60d survivors; for Survivors 60 Days: survivors/group
L1210 leukemia [4] = experiment: Oral treatment of L1210 leukemia in BDF1 mice, therapy on days 1-5; type: in vivo, murine (female BDF1 mice); details: for T/C, increase of lifespan: including 60 day survivors; for Survivors 60 Days: survivors/group
Procedure: The anti-tumor activity of the liposomal drug preparations was evaluated with the murine L1210 leukemia model in female BDF1 mice (Rubas et al., Int. J. Cancer, 37, 149-154 (1986)). The L1210 cells (1×10^5) from donor ascites were injected i.v.
Control groups of 5-6 mice received ara-C dissolved in phosphate buffer (PB). The animals were observed daily until death or 60 days. Increase in lifespan of the treated animals (T) was compared to that of the untreated controls (C), expressed as T/C in percentages. Animals surviving 60 days were included in the calculation and considered as being cured.

HL-60 [5] = experiment: Human tumor xenograft in nude mice, i.p., leukemia HL-60; type: in vivo; details: HL-60, acute promyelocytic leukemia; i.p. 150 mg/kg/day (MTD), days 1,4,7,10
Procedure: (§1) 6 to 8 week old nude mice of NMRI genetic background were used for all experiments. Tumors were implanted subcutaneously in both flanks of athymic nude mice. Treatment was started as soon as the tumors reached a median diameter of 6 mm, depending on the doubling time between day 12-42. Mice were randomly assigned to treatment groups and control group (5-6 mice per group bearing 6-12 evaluable tumors).
(§2) Tumor size was measured by two-dimensional measurement with calipers. The antitumor effect was evaluated following maximal tumor regression, in non-regressing tumors after 3-4 weeks. Relative tumor volume (RTV) values were calculated for each single tumor by dividing the tumor volume day×by the tumor volume day 0 at the time of randomization. Median RTV values were used for further evaluation.
(§3) Drug therapy was intraperitoneal on day 1,4,7 and 10. The dose of 150 mg/kg/day was considered to be the maximal tolerated dose resulting in a lethality of 14% in tumor-bearing nude mice.
(§4) Tumor growth inhibition was calculated according to relative tumor volume of control minus test divided by the control group. Furthermore the specific growth delay (SGD) was calculated with regard to the tumor doubling time (DT) by doubling time test group minus control divided by the doubling time of the control group.

CCRF-CEM [6] = experiment: Human tumor xenograft in nude mice, i.p., leukemia CCRF-CEM; type: in vivo; details: acute lymphatic leukemia, i.p. 150 mg/kg/day (MTD), days 1,4,7,10
Procedure: as §1, §2, §3, §4

MAXF 401 = experiment: Human tumor xenograft in nude mice, i.p., mammary carcinoma MAXF 401; type: in vivo; details: MAXF 401, adenocarcinoma; i.p. 150 mg/kg/day (MTD), days 1,4,7,10
Procedure: as §1, §2, §3, §4

PC3M = experiment: Human tumor xenograft in nude mice, i.p., prostate carcinoma PC3M; type: in vivo; details: adenocarcinoma, i.p. 150 mg/kg/day (MTD), days 1,4,7,10
Procedure: as §1, §2, §3, §4

LXFS 605 = experiment: Human tumor xenograft in nude mice, i.p., lung carcinoma LXFS 605; type: in vivo; details: LXFS 605, small cell; i.p. 150 mg/kg/day (MTD), days 1,4,7,10
Procedure: as §1, §2, §3, §4

LXFL 529 = experiment: Human tumor xenograft in nude mice, i.p., lung carcinoma LXFL 529; type: in vivo; details: LXFL 529, large cell; i.p. 150 mg/kg/day (MTD), days 1,4,7,10
Procedure: as §1, §2, §3, §4

MEXF 276 = experiment: Human tumor xenograft in nude mice, i.p., melanoma MEXF 276; type: in vivo; details: MEXF 276, amelanotic; i.p. 150 mg/kg/day (MTD), days 1,4,7,10
Procedure: as §1, §2, §3, §4

OVXF 1023 = experiment: Human tumor xenograft in nude mice, i.p., ovary carcinoma OVXF 1023; type: in vivo; details: i.p. 150 mg/kg/day (MTD), days 1,4,7,10
Procedure: as §1, §2, §3, §4

[7] = Toxicity (lethality, maximal tolerated dose) in tumor-bearing nude mice, i.p.; details: mouse, in vivo, ip
Procedure: as §1
Drug therapy was intraperitoneal on day 1,4,7 and 10.
Toxicity was assessed by lethality within 10 days after last therapy and body weight loss. The body weight of the nude mice was measured weekly, for rapidly growing tumor lines, measurements were done twice weekly.

cytosine deaminase = details: in the body, in words; cited from earlier work
[8] = total dose 200 μmol/kg (49 mg/kg)

CCCCCCCCCCCCCCCCCCNc1ccn([C@@H]2O[C@H](CO)[C@@H](O)[C@@H]2O)c(=O)n1 [NOAC, 4-(1-octadecylamino)-1-β-D-arabinofuranosyl-2(1H)-pyrimidinone]
IC50 (HL-60 [1]; HL-60, MTT assay, read-out: IC50): < 50 µM | IC50 (U937; U937, MTT assay, read-out: IC50): < 100 µM | IC50 (K562; K562, MTT assay, read-out: IC50): < 200 µM | IC50 (CCRF-CEM [2]; MTT assay, read-out: IC50): 50 µM | IC50 (CCRF-CEM (dcK)^-): < 140 µM | effect compared with ara-C and N^4-hexadecyl-ara-C (L1210 leukemia [3]; results of Table 2, in words): superiority of NOAC over the prior art compounds, ara-C and N^4 -hexadecyl-ara-C | Survival Time, Mean ± SD (L1210 leukemia [3]; total dose 50 μmol/kg): 52.1 ± 19.2 days | T/C, increase of lifespan (L1210 leukemia [3]; total dose 50 μmol/kg): 744% | Survivors 60 Days (L1210 leukemia [3]; total dose 50 μmol/kg): 5/6 | Survival Time, Mean ± SD (L1210 leukemia [3]; total dose 100 μmol/kg): 60 days | Survival Time, Range (L1210 leukemia [3]; total dose 100 μmol/kg): > 60 days | T/C, increase of lifespan (L1210 leukemia [3]; total dose 100 μmol/kg): 857% | Survivors 60 Days (L1210 leukemia [3]; total dose 100 μmol/kg): 6/6 | Survival Time, Mean ± SD (L1210 leukemia [4]; total dose 1 mmol/kg): 54 ± 15 days | T/C, increase of lifespan (L1210 leukemia [4]; total dose 1 mmol/kg): 673% | Survivors 60 Days (L1210 leukemia [4]; total dose 1 mmol/kg): 5/6 | Survival Time, Mean ± SD (L1210 leukemia [4]; total dose 2 mmol/kg): 55 ± 12 days | T/C, increase of lifespan (L1210 leukemia [4]; total dose 2 mmol/kg): 689% | Survivors 60 Days (L1210 leukemia [4]; total dose 2 mmol/kg): 5/6 | Growth inhibition (HL-60 [5]): 97% | Growth inhibition (CCRF-CEM [6]): 96% | Growth inhibition (MAXF 401): 85% | Growth inhibition (PC3M): 83% | Growth inhibition (LXFS 605): 73% | Growth inhibition (LXFL 529): 79% | Growth inhibition (MEXF 276): 39% | Growth inhibition (OVXF 1023): 45% | MTD ([7]; days 1,4,7 and 10, tumor-bearing nude mice): 150 mg/kg/day | mortality ([7]; 150 mg/kg/day i.p., tumor-bearing nude mice): 14%

CCCCCCCCCCCCCCCCNc1ccn([C@@H]2O[C@H](CO)[C@@H](O)[C@@H]2O)c(=O)n1 [N^4 -Hexadecyl-ara-C, 4-(1-hexadecylamino)-1-β-D-arabinofuranosyl-2(1H)-pyrimidinone]
Survival Time, Mean ± SD (L1210 leukemia [3]; total dose 50 μmol/kg): 10.6 days | Survival Time, Range (L1210 leukemia [3]; total dose 50 μmol/kg): 10 to 11 days | Survivors 60 Days (L1210 leukemia [3]; total dose 50 μmol/kg): 0/5 | Survival Time, Mean ± SD (L1210 leukemia [3]; total dose 100 μmol/kg): 12.0 days | Survival Time, Range (L1210 leukemia [3]; total dose 100 μmol/kg): 11 to 16 days | Survivors 60 Days (L1210 leukemia [3]; total dose 100 μmol/kg): 0/5

Nc1ccn([C@@H]2O[C@H](CO)[C@@H](O)[C@@H]2O)c(=O)n1 [ara-C, 4-amino-1-β-D-arabinofuranosyl-2(1H)-pyrimidinone, reference compound]
IC50 (HL-60 [1]; HL-60): > 200 µM | IC50 (U937): > 200 µM | IC50 (K562; K562): > 400 µM | IC50 (CCRF-CEM [2]): < 1 µM | Survival Time, Mean ± SD (L1210 leukemia [3]; [8]): 19.8 ± 19.7 days | T/C, increase of lifespan (L1210 leukemia [3]; [8]): 282% | Survivors 60 Days (L1210 leukemia [3]; [8]): 1/6 | Survival Time, Mean ± SD (L1210 leukemia [4]; total dose 2 mmol/kg): 13 ± 17 days | Survival Time, Range (L1210 leukemia [4]; total dose 2 mmol/kg): 10 to 52 days | T/C, increase of lifespan (L1210 leukemia [4]; total dose 2 mmol/kg): 221% | Survivors 60 Days (L1210 leukemia [4]; total dose 2 mmol/kg): 0/6 | deamination by cytosine deaminase (cytosine deaminase): rapidly undergoes deamination

— patent US5641758A, “Cytarabine derivatives, the preparation and use thereof” (priority 1994, dated 1997)
